Patent US20260069584A1, “METHODS OF TREATING CHRONIC MYELOID LEUKEMIA USING THE TYROSINE KINASE INHIBITOR VODOBATINIB” (Sun Pharma Advanced Research Company Ltd., priority 2022, published 2026)

Tested on: AP CML, BP CML and Ph+ ALL
Experiment: Part B: disease response in AP CML, BP CML and Ph+ ALL subjects
Format: in vivo, human
Text: This was a Phase I/2, open-label, single-agent, multicenter, multi-dose, dose-escalation study in subjects with Philadelphia chromosome-positive Ph+ CML (CP CML, AP CML and BP CML) and Ph+ ALL. The primary objectives of this study were to determine the maximum tolerated dose (MTD; or recommended Phase 2 dose [RP2D]) of the compound of Formula I when administered orally and to evaluate its safety.
In this study, the dose-escalation cohort started with an accelerated titration study design (ATD) and shifted to a 3±3 design when subjects in the preceding ATD cohort experienced either grade 2 or higher adverse events (AEs) or dose-limiting toxicity (DLT) during Cycle 1 that was not clearly and incontrovertibly related to the underlying disease or concomitant medications. The DLT period consisted of 28 days (Cycle 1). Subjects experiencing DLTs were managed with dose delays and/or discontinuation and continued in the study until disease progression. Decisions to advance to a succeeding dose level occurred after the evaluation of safety and tolerability data for a given dose level.
Accordingly, the eligible subjects were treated in 4-week cycles of once daily self-administration of the compound of Formula I. The administration was after an overnight fast, or after maintaining approximately 2 hours of fasting before and after the dosing in all cycles.
For the cohorts, where the 3±3 design applies, 3 subjects were enrolled initially. If 2 of these subjects experienced a Grade 2 or more toxicity (that was not clearly and incontrovertibly related to the underlying disease or concomitant medications), subsequent cohorts were escalated according to smaller increments. Further, if there were no DLTs in the first 3 subjects, dose escalation to the next higher dose level was allowed to proceed. If 1 of the 3 subjects experienced a DLT, that dose level was expanded to 6 subjects (3 additional subjects were enrolled). If 2 subjects at a given dose level experienced a DLT, the MTD was considered to have been exceeded. The next lower dose level was expanded to 6 subjects, or if 6 subjects had already been enrolled and no more than 1 of the 6 subjects experienced a DLT, then this lower dose level was considered the MTD. Additional subjects were enrolled in dose escalation cohorts for further assessment of safety and efficacy of the compound of Formula 1 at doses that were tolerated (i.e., doses that have <2 DLTs in 6 enrolled subjects or <1 DLT in 3 enrolled subjects). Thus 204 mg was arrived at as MTD. A subject experiencing a DLT was allowed to continue therapy with a reduced dose. Subjects who experienced a DLT and recovered were treated at the next lower dose level until disease progression or other events requiring further dose reduction existed. For cohorts at Dose Level 2 or higher, a further dose reduction (i.e., up to 2 levels lower than their originally assigned dose) was implemented in the case of a further DLT or other non-DLT events requiring a dose reduction, if and when the event leading to dose reduction returned to Grade 1 or lower in severity. The reduced dose was re-escalated to the original or higher dose (i.e., the dose for which safety had been established in the dose escalation cohort) considering subject safety and response to the compound of Formula I. The subject was discontinued from treatment using the compound of Formula I, if dose reduction below 48 mg was required.
The study was conducted over a period of 60 months (5 years) which was divided in 28-days cycle. In the first two cycles, the dose administration was started on day 1 and the subject's assessments were performed on day 1, day 2, day 3, day 8, day 15 and day 22. From Cycle 3 onwards, the assessments were performed every 3 months (i.e., on day 28 of Cycle 3, followed by day 28 of Cycle 6 which was further followed by day 28 of Cycle 9). […]

`Cc1ccc(C(=O)NNC(=O)c2c(C)cccc2Cl)cc1C#Cc1cnc2ccccc2c1` [compound of Formula I, N′-(2-chloro-6-methylbenzoyl)-4-methyl-3-[2-(3-quinolyl)ethynyl]-benzohydrazide] was tested. Which “Best Cytogenetic Response: Complete Response” value (24 mg (N = 1) ESC) did it give?
Its value is 1(100).

What about the “Best Cytogenetic Response: Major Cytogenetic Response” value (24 mg (N = 1) ESC) of the same compound?
Its value is 1(100).

What about the “Best Cytogenetic Response: Minimal Response” value (24 mg (N = 1) ESC) of the same compound?
The value was 0.

And the “Best Cytogenetic Response: Minor Response” value (24 mg (N = 1) ESC)?
Its value is 0.

And the “Best Cytogenetic Response: No Response” value (24 mg (N = 1) ESC)?
The value was 0.

And the “Best Cytogenetic Response: Partial Response” value (24 mg (N = 1) ESC)?
The value was 0.

What about the “Best Hematologic Response: Complete Response” value (24 mg (N = 1) ESC) of the same compound?
The value was 1(100).

And the “Best Hematologic Response: Major Hematologic Response” value (24 mg (N = 1) ESC)?
The value was 1(100).

And the “Best Hematologic Response: No Evidence of Leukemia” value (24 mg (N = 1) ESC)?
Its value is 0.

And the “Best Hematologic Response: No Response” value (24 mg (N = 1) ESC)?
Its value is 0.

And the “Best Molecular Response: Complete Response” value (24 mg (N = 1) ESC)?
Its value is 0.

What about the “Best Molecular Response: Major Response” value (24 mg (N = 1) ESC) of the same compound?
The value was 1(100).

And the “Best Molecular Response: No Response” value (24 mg (N = 1) ESC)?
The value was 0.

What about the “Best Cytogenetic Response: Complete Response” value (48 mg (N = 3) ESC) of the same compound?
The value was 2(66.7).

And the “Best Cytogenetic Response: Major Cytogenetic Response” value (48 mg (N = 3) ESC)?
The value was 2(66.7).

And the “Best Cytogenetic Response: Minimal Response” value (48 mg (N = 3) ESC)?
The value was 0.

And the “Best Cytogenetic Response: Minor Response” value (48 mg (N = 3) ESC)?
The value was 0.

And the “Best Cytogenetic Response: No Response” value (48 mg (N = 3) ESC)?
Its value is 1(33.3).

And the “Best Cytogenetic Response: Partial Response” value (48 mg (N = 3) ESC)?
Its value is 0.

What about the “Best Hematologic Response: Complete Response” value (48 mg (N = 3) ESC) of the same compound?
The value was 3(100).

What about the “Best Hematologic Response: Major Hematologic Response” value (48 mg (N = 3) ESC) of the same compound?
Its value is 3(100).

What about the “Best Hematologic Response: No Evidence of Leukemia” value (48 mg (N = 3) ESC) of the same compound?
Its value is 0.

And the “Best Hematologic Response: No Response” value (48 mg (N = 3) ESC)?
The value was 0.

What about the “Best Molecular Response: Complete Response” value (48 mg (N = 3) ESC) of the same compound?
The value was 1(33.3).

And the “Best Molecular Response: Major Response” value (48 mg (N = 3) ESC)?
The value was 1(33.3).

And the “Best Molecular Response: No Response” value (48 mg (N = 3) ESC)?
The value was 2(66.7).

And the “Best Cytogenetic Response: Complete Response” value (90 mg (N = 1) ESC)?
The value was 1(100).

What about the “Best Cytogenetic Response: Major Cytogenetic Response” value (90 mg (N = 1) ESC) of the same compound?
The value was 1(100).

What about the “Best Cytogenetic Response: Minimal Response” value (90 mg (N = 1) ESC) of the same compound?
The value was 0.

What about the “Best Cytogenetic Response: Minor Response” value (90 mg (N = 1) ESC) of the same compound?
The value was 0.

What about the “Best Cytogenetic Response: No Response” value (90 mg (N = 1) ESC) of the same compound?
The value was 0.

What about the “Best Cytogenetic Response: Partial Response” value (90 mg (N = 1) ESC) of the same compound?
The value was 0.

What about the “Best Hematologic Response: Complete Response” value (90 mg (N = 1) ESC) of the same compound?
Its value is 1(100).

And the “Best Hematologic Response: Major Hematologic Response” value (90 mg (N = 1) ESC)?
Its value is 1(100).

What about the “Best Hematologic Response: No Evidence of Leukemia” value (90 mg (N = 1) ESC) of the same compound?
The value was 0.

And the “Best Hematologic Response: No Response” value (90 mg (N = 1) ESC)?
The value was 0.

And the “Best Molecular Response: Complete Response” value (90 mg (N = 1) ESC)?
The value was 1(100).

What about the “Best Molecular Response: Major Response” value (90 mg (N = 1) ESC) of the same compound?
The value was 1(100).

And the “Best Molecular Response: No Response” value (90 mg (N = 1) ESC)?
The value was 0.

What about the “Best Cytogenetic Response: Complete Response” value (126 mg (N = 3) ESC) of the same compound?
Its value is 0.

What about the “Best Cytogenetic Response: Major Cytogenetic Response” value (126 mg (N = 3) ESC) of the same compound?
The value was 0.

What about the “Best Cytogenetic Response: Minimal Response” value (126 mg (N = 3) ESC) of the same compound?
Its value is 0.

And the “Best Cytogenetic Response: Minor Response” value (126 mg (N = 3) ESC)?
The value was 1(33.3).

What about the “Best Cytogenetic Response: No Response” value (126 mg (N = 3) ESC) of the same compound?
The value was 1(33.3).

And the “Best Cytogenetic Response: Partial Response” value (126 mg (N = 3) ESC)?
The value was 0.

What about the “Best Hematologic Response: Complete Response” value (126 mg (N = 3) ESC) of the same compound?
Its value is 0.

What about the “Best Hematologic Response: Major Hematologic Response” value (126 mg (N = 3) ESC) of the same compound?
Its value is 0.

What about the “Best Hematologic Response: No Evidence of Leukemia” value (126 mg (N = 3) ESC) of the same compound?
Its value is 0.

And the “Best Hematologic Response: No Response” value (126 mg (N = 3) ESC)?
Its value is 1(33.3).

And the “Best Molecular Response: Complete Response” value (126 mg (N = 3) ESC)?
Its value is 0.

And the “Best Molecular Response: Major Response” value (126 mg (N = 3) ESC)?
The value was 0.

What about the “Best Molecular Response: No Response” value (126 mg (N = 3) ESC) of the same compound?
Its value is 2(66.7).

What about the “maintained CCyR and MMR” value (2 Ph+ ALL pts) of the same compound?
The value was 1 pt.

And the “CCyR with MMR” value (3 AP CML patients)?
The value was 1 patient.

And the PCyR (3 AP CML patients)?
Its PCyR is 2 patients.

What about the “complete hematological response (CHR)” value (4 BP CML patients) of the same compound?
The value was 2 patients.

What about the “disease progression as best response” value (4 BP CML patients) of the same compound?
Its value is 2 patients.

What about the “Best Cytogenetic Response: Complete Response” value (66 ang (N = 3) ESC) of the same compound?
The value was 2(66.7).

And the “Best Cytogenetic Response: Minor Response” value (66 ang (N = 3) ESC)?
The value was 0.

What about the “Best Cytogenetic Response: No Response” value (66 ang (N = 3) ESC) of the same compound?
Its value is 0.

And the “Best Hematologic Response: Complete Response” value (66 ang (N = 3) ESC)?
Its value is 0.

What about the “Best Hematologic Response: Major Hematologic Response” value (66 ang (N = 3) ESC) of the same compound?
The value was 2(66.7).

And the “Best Hematologic Response: No Response” value (66 ang (N = 3) ESC)?
The value was 1(33.3).

And the “Best Molecular Response: Major Response” value (66 ang (N = 3) ESC)?
The value was 1(33.3).

What about the “Best Molecular Response: No Response” value (66 ang (N = 3) ESC) of the same compound?
Its value is 2(66.7).

What about the “Best Cytogenetic Response: Major Cytogenetic Response” value ((N = 3) ESC) of the same compound?
Its value is 3(100).

And the “Best Cytogenetic Response: Minimal Response” value ((N = 3) ESC)?
Its value is 0.

What about the “Best Cytogenetic Response: Partial Response” value ((N = 3) ESC) of the same compound?
Its value is 1(33.3).

What about the “Best Hematologic Response: No Evidence of Leukemia” value ((N = 3) ESC) of the same compound?
Its value is 2(66.7).

And the “Best Molecular Response: Complete Response” value ((N = 3) ESC)?
The value was 1(33.3).

And the “Best Cytogenetic Response: Complete Response” value (Total ESC)?
The value was 6(54.5).

And the “Best Cytogenetic Response: Major Cytogenetic Response” value (Total ESC)?
The value was 7(63.6).

What about the “Best Cytogenetic Response: Minimal Response” value (Total ESC) of the same compound?
Its value is 0.

And the “Best Cytogenetic Response: Minor Response” value (Total ESC)?
Its value is 1(9.1).

What about the “Best Cytogenetic Response: No Response” value (Total ESC) of the same compound?
The value was 2(18.2).

What about the “Best Cytogenetic Response: Partial Response” value (Total ESC) of the same compound?
Its value is 1(9.1).

What about the “Best Hematologic Response: Complete Response” value (Total ESC) of the same compound?
Its value is 5(45.5).

And the “Best Hematologic Response: Major Hematologic Response” value (Total ESC)?
The value was 7(63.6).

What about the “Best Hematologic Response: No Evidence of Leukemia” value (Total ESC) of the same compound?
The value was 2(18.2).

What about the “Best Hematologic Response: No Response” value (Total ESC) of the same compound?
Its value is 2(18.2).

What about the “Best Molecular Response: Complete Response” value (Total ESC) of the same compound?
Its value is 3(27.3).

What about the “Best Molecular Response: Major Response” value (Total ESC) of the same compound?
Its value is 4(36.4).

And the “Best Molecular Response: No Response” value (Total ESC)?
Its value is 6(54.5).
